Literature values in patent publication US8563014B2, “Modafinil oral lyophilizate” (Teva Sante, priority 2004, dated 2013).

Experiments:
mice = conditions: single administration
monkeys = conditions: single administration

## NC(=O)C[S+]([O-])C(c1ccccc1)c1ccccc1 (centres unmarked) [modafinil, 2-(benzhydrylsulfinyl)acetamide]
mice
  Locomotor activity: increased locomotor activity
monkeys
  Nocturnal activity: increased nocturnal activity
